Laboratory results from article PMC5344293, “A phase 1 dose-escalation and expansion study of binimetinib (MEK162), a potent and selective oral MEK1/2 inhibitor” (British Journal of Cancer, 2017).
Where “and” joins values, the source holds several entries; their conditions need not be identical. Identical values can stand only once.

Legend:
advanced solid tumours = test: Tumour response, RECIST version 1.1; type: in vivo, human
Experimental: Efficacy was assessed through radiologic scans and clinical measurements of disease sites (if applicable), and evaluation of serologic tumour markers in patient blood samples as appropriate for tumour type. Tumour assessments were performed within 21 days before the first dose and then every 6 weeks starting at the end of cycle 2. Tumour response was evaluated by the investigator using Response Evaluation Criteria in Solid Tumours (RECIST) version 1.1 criteria. Tumour marker levels were incorporated into the overall response assessment per RECIST.
All patients who received ⩾1 dose of binimetinib were included in the safety analysis. Patients in the safety analysis who had ⩾1 measurable lesion at baseline and at least 1 post-baseline disease assessment were evaluable for efficacy. Kaplan–Meier estimates of progression-free survival (PFS) and overall survival (OS) were performed for patients in the expansion phase ([Kaplan and Meier, 1958]) using SAS Version 9.2 (SAS Institute Inc., Cary, NC, USA).

NRAS-mutant melanoma = test system: NRAS-mutant melanoma; parameters: method as in Dummer et al, 2016; details: patients with NRAS-mutant melanoma; ref Dummer et al, 2016; cited from earlier work
[1] = Phase 1 dose escalation: DLTs and MTD; type: in vivo
Experimental: This multicentre, open-label, phase 1 study comprised two phases: a dose-escalation phase and an expansion phase. In the dose-escalation phase, a modified 3+3 design was employed to determine the MTD of binimetinib administered orally twice daily (BID) in a 21-day treatment cycles. A single dose of binimetinib was administered on day 1 and then BID continuously beginning on day 2 of cycle 1. A starting dose of 30 mg BID was utilised for the dose-escalation phase. The dose was escalated in cohorts of at least three evaluable patients at 45 mg BID, 60 mg BID, and 80 mg BID until MTD was determined. Patients in the expansion phase received continuous BID treatment with binimetinib beginning on day 1 of cycle 1 at the MTD determined in the dose-escalation phase. Patients were instructed to take BID doses 12±2 h apart with water, irrespective of food.
Dose-limiting toxicities (DLTs) were any adverse event (AE) not clearly attributable to the patient's disease, including haematologic toxicities of grade 4 neutropenia for ⩾5 days, febrile neutropenia, grade 4 thrombocytopenia, and grade 3 thrombocytopenia with bleeding. […]

Ki67 = test: Skin punch biopsy Ki67 immunohistochemistry; type: in vivo, human; details: cycle 1 day 15
Experimental: Skin punch biopsies (with hair follicles, if feasible) were obtained from patients in the dose-escalation phase and colorectal cancer expansion phase cohorts pre-dose at baseline and post dose within 7 days of cycle 1 day 15 for measurement of Ki67 and pERK expression. Ki67 and pERK expression were determined by immunohistochemistry using a Ki67 rabbit monoclonal antibody (clone 30-9; Ventana Medical Systems, Inc., Tucson, AZ, USA) and a pERK rabbit monoclonal antibody (Thr202/Tyr204, clone 20G11; Cell Signaling Technology, Inc., Danvers, MA), respectively, visualised with DAB and counterstained with haematoxylin. Ki67 was expressed as percentage of tumour cells with positive stain; pERK was expressed as an H-score.

human cancer cell lines = test system: human cancer cell lines; parameters: method as in Lee et al, 2010; details: subset of cells; particularly active with activating BRAF, NRAS, KRAS mutations; ref Lee et al, 2010; cited from earlier work
[2] = parameters: method as in Watanabe et al, 2016; details: BID; Japanese patients with advanced solid tumours; ref Watanabe et al, 2016; cited from earlier work

Cn1cnc2c(F)c(Nc3ccc(Br)cc3F)c(C(=O)NOCCO)cc21 [binimetinib]
Best response of stable disease, patients (advanced solid tumours): 36% | Objective responses among patients with biliary cancer (advanced solid tumours; 3 of 30 patients with biliary cancer): 10% | Responses in patients with colorectal cancer (advanced solid tumours; KRAS- or BRAF-mutant cohorts): no responses | Objective responses, number of patients (advanced solid tumours; all in patients with biliary cancer): Three | Duration of complete response (advanced solid tumours; biliary cancer): 11.3 months | Duration of partial response (advanced solid tumours; biliary cancer, two patients): 10.2 months and 17.9 months | Objective responses (advanced solid tumours; of 91 patients evaluable for response): 3% | Complete responses, number of patients (advanced solid tumours; patients with biliary cancer): one | Partial responses, number of patients (advanced solid tumours; patients with biliary cancer): two | Median duration of stable disease (advanced solid tumours; range, 0.92–11.53 months): 3.94 months | PFS vs dacarbazine (NRAS-mutant melanoma): significantly longer PFS | Recommended phase 2 dose ([1]; human, in vivo, 21 day): 45 mg | Maximum tolerated dose (MTD) ([1]; orally twice daily (BID), 21-day cycles, patients with advanced solid tumours): 60 mg | Skin expression of Ki67, median (range) percent of baseline (Ki67; 30 mg BID (n=4)): 44 (25–56) percent of baseline | Skin expression of Ki67, median (range) percent of baseline (Ki67; 45 mg BID (n=22)): 33 (6–300) percent of baseline | Skin expression of Ki67, median (range) percent of baseline (Ki67; 60 mg BID (n=7)): 31 (17–100) percent of baseline | Skin expression of Ki67, median (range) percent of baseline (Ki67; Total (N=33)): 33 (6–300) percent of baseline | Inhibition of proliferation (human cancer cell lines): potently inhibits | MTD/recommended phase 2 dose [2]: 45 mg
